The values below come from patent US9458137B2, “Substituted indol-5-ol derivatives and their therapeutical applications” (NantBioScience, Inc., priority 2012, dated 2016).

SMILES strings stand for the structures.

The subject of data set [1] is Pane-1 model of pancreatic carcinoma. In words: Panc-1 pancreatic carcinoma xenograft. The class given is in vivo. The conditions noted are these: with or without Abraxane. The source says:
FIGS. 48 and 49 depict the results of various concentrations of NTW-3456, with or without Abraxane on a Pane-1 model of pancreatic carcinoma.

Data set [2] is described as follows: plasma concentration after oral administration (LCMS). The class given is in vivo, SCID mice. To be noted: 24 hour after single oral 50 mg/kg; mice with MV4-11 tumor xenografts. The protocol: (§1) The mice carrying the established MV4-11 tumor xenografts (tumor volume around 150 mm^3) were given an oral dose of 50 mg/kg NTW-3456. At 0, 1, 2, 8, 16, 24 hours after dosing, three were euthanized. The blood samples were collected and plasma was prepared with centrifuge for LCMS assay. And the tumors were harvested, homogenized in lysis buffer, immunoprecipitated with anti-FLT3 antibody FIG. 33.
(§2) The curve (solid dot) is the plot of plasma concentration-time profiles of NTW-3456 after oral administration of 50 mg/kg.

Data set [3] concerns human MV411 human acute myelogenous leukemia (AML) xenograft. The class given is in vivo, SCID mice. To be noted: various concentrations; scid mouse, MV411 cells. The protocol:
The objective of the first study was to evaluate antitumor activities of the novel multiple-kinase inhibitor NTW-3475 against human MV411 human acute myelogenous leukemia (AML) xenograft model in female SCID mice.
Four or six animals were randomly assigned to each study group. Each animal was injected subcutaneously in the left and right flank area with 0.1 ml of 1.0×10^8 MV411 cells per mL
Each test or control animal was placed on a 5-day on, two-day off for two cycles of vehicle negative control or 25, 50 mg/kg of NTW-3475. Tumor growth was measured with a digital hand held caliper twice weekly (once tumor emerges) prior to the first dosing and then two to three times weekly until euthanized. Animals were weighed prior to tumor cell injection, prior to dosing, two to three times weekly with tumor growth measurements, and prior to euthanasia.
FIGS. 27-32 depict the results of various concentrations of NTW-3456 on tumor growth in scid mouse/xenograft model of AML using MV411 cells. […] This invention is characterized as it is here was a correlation between the inhibition of the pFLT3 kinase and growth control.

Data set [4] concerns TT human Thyroid carcinoma xenograft. In words: TT thyroid carcinoma xenograft. The class given is in vivo, nude mouse. To be noted: various concentrations; nude mouse, TT cell model. The source says:
(§3) This example assesses NTW-3475's anti-tumor activity using a scid mouse xenograft models for leukemias and nude mouse xenograft models of endometrial, pancreatic and thyroid carcinomas. NTW-3475 combination therapy was also studied in murine xenografts.
FIGS. 36-38 depict the results of various concentrations of NTW-3456 on a nude mouse/xenograft the TT cell model of thyroid carcinoma.

Data set [5] relates to human tumor cell lines of the cancer screening panel. The experiment in a line: in vitro antiproliferation, NCI 60 cancer cell line panel (SRB). The class given is cell-based. The conditions noted are these: 48 h. On the procedure: NTW-3475 was also tested for its antiproliferative potential using cell lines from the NCI 60 cancer cell line panel.
The human tumor cell lines of the cancer screening panel are grown in RPMI 1640 medium containing 5% fetal bovine serum and 2 mM L-glutamine. For a typical screening experiment, cells are inoculated into 96 well microtiter plates in 100 μL at plating densities ranging from 5,000 to 40,000 cells/well depending on the doubling time of individual cell lines. After cell inoculation, the microtiter plates are incubated at 37° C., 5% CO2, 95% air and 100% relative humidity for 24 h prior to addition of experimental drugs. […]
Following drug addition, the plates are incubated for an additional 48 h at 37° C., 5% CO2, 95% air, and 100% relative humidity. […] Bound stain is subsequently solubilized with 10 mM trizma base, and the absorbance is read on an automated plate reader at a wavelength of 515 nm. […] Using the seven absorbance measurements [time zero, (Tz), control growth, (C), and test growth in the presence of drug at the five concentration levels (Ti)], the percentage growth is calculated at each of the drug concentrations levels. Percentage growth inhibition is calculated as: [(Ti-Tz)/(C-Tz)]×100 for concentrations for which Ti>/=Tz [(Ti-Tz)/Tz]×100 for concentrations for which Ti<Tz.
Three dose response parameters are calculated for each experimental agent. […]

For a further data set, the target named is abl T315I mutant (Homo sapiens, UniProt P00519, T315I). In words: kinase activity in abl mutants. The class given is biochemical. From the text: The first study was designed to assess the effect of NTW-3456 on kinase activity. Activity of NTW-3456 for a wide range of kinases and is shown FIGS. 22-24, including mutant kinases thought to play a large role in neoplastic transformation (FIGS. 23 and 24). In addition, NTW-3456 inhibited kinase activity in abl mutants for which no prior inhibitors have been FDA approved. In particular, NTW-3456 inhibits the 2 T315I mutant for which no kinase inhibitor had been known prior to NTW-3456.

The test system of data set [6] is human MIAPaCa-2 pancreatic carcinoma xenograft. The experiment in a line: MIAPaCa-2 pancreatic carcinoma xenograft. The class given is in vivo, athymic nude-Faxn1 mice. On the procedure:
The objective of the third study was to evaluate antitumor activities of novel multiple-kinase inhibitor NTW-3475 in human MIAPaCa-2 pancreatic carcinoma xenograft in athymic nude-Faxn1 mice.
Four animals were randomly assigned to study groups. Each animal was weighed, and then injected subcutaneously in the left and right flank area with 0.1 ml of 5.0×10^7 MIAPaCa-2 cells per mL.
Each test or control animal was on a 5-day on, two-day off for two cycles treatment schedule with negative control vehicle, positive control Abraxane at 20 mg/kg or 25, 50 mg/kg of NTW-3475. Tumor growth was measured with a digital hand held caliper twice weekly (once tumor emerges) prior to the first dosing and then two to three times weekly until euthanized.
FIGS. 42-44 depict the results of various concentrations of NTW-3456 on a nude mouse/xenograft the MIAPaCa-2 model of pancreatic carcinoma.
FIGS. 45 and 46 depict the results of various concentrations of NTW-3456, with or without Abraxane on a MiaPaCa-2 model of pancreatic carcinoma.

Data set [7] deals with AN3 human endometrial carcinoma carcinoma xenograft. In words: AN3 endometrial carcinoma xenograft. The class given is in vivo, nude mouse. To be noted: various concentrations; AN3 nude mouse model.
Description: as §3
FIGS. 39-41 depict the results of various concentrations of NTW-3456 on the AN3 nude mouse/xenograft model of endometrial carcinoma.

The test system of data set [8] is human K562 chronic myelogenous leukemia (CML) xenograft. In words: K562 CML xenograft model. The conditions noted are these: various concentrations; scid mouse, K562 cells. The class given is in vivo, SCID mice. The protocol:
The objective of the second study was to evaluate antitumor activities of novel multiple-kinase inhibitor NTW-3475 in human K562 chronic myelogenous leukemia (CML) xenograft model in female SCID mice.
Four to six animals were randomly assigned to study groups. Each animal was weighed, and then injected subcutaneously in the left and right flank area with 0.1 ml of 8.0×10^7 K562 cells per mL.
Each test or control animal was on a 5-day on, two-day off for two cycles treatment schedule. Tumor growth was measured with a digital hand held caliper twice weekly (once tumor emerges) prior to the first dosing and then two to three times weekly until euthanized. Animals were weighed prior to tumor cell injection, prior to dosing, two to three times weekly with tumor growth measurements, and prior to euthanasia.
FIGS. 34 and 35 depict the results of various concentrations of NTW-3456 on a scid mouse/xenograft model of CML using K562 cells.

For data set [9], the system named is FLT3 phosphorylation (pFLT3) of MV4-11 tumors. The experiment in a line: FLT3 phosphorylation in MV4-11 tumor xenografts. The class given is in vivo, SCID mice. To be noted: 24 hour after single oral 50 mg/kg. On the procedure:
as §1, §2

As for `C/C=C/c1cc(Nc2cc(N3CCN(C)CC3)nc(Oc3cc(F)c4[nH]c(C)cc4c3F)n2)n[nH]1` [NTW-3456], the anti-tumor activity entry in data set [1] is recorded as “significant anti-tumor activity, especially when used in combination with Abraxane”; in data set [3], “significant anti-tumor activity, especially at higher doses”; in data set [4], “significant anti-tumor activity, especially at higher doses”; in data set [6] (various concentrations, single agent, nude mouse), “some anti-tumor activity”; in data set [6] (with or without Abraxane) it was “significant anti-tumor activity, especially when used in combination with Abraxane”; in data set [7], “significant anti-tumor activity, especially at higher doses”. In addition, the anti-tumor activity result in data set [8] is listed as “significant anti-tumor activity, especially at higher doses”. In [2], this compound registered a plasma concentration of 7 nM. Also, in data set [5], the antiproliferative activity result is “seen against AML, CML, thyroid, enodmetrial, gastric, breast, and some pancreatic carcinoma cell lines”. In addition, the “inhibition of kinase activity” value on abl T315I mutant was “inhibits”. Moreover, the “inhibition of FLT3 phosphorylation of MV4-11 tumor” value in [9] was “more than 60%”.
